Positions of bridges follow the written chain, without caps; N, C: chain ends. Non-standard residues stand in square brackets, D forms with d. Residues, ends and D or L forms follow the SMILES beside them. S5 = C=CCCC[C@](C)(N)C(=O)O; Nle = CCCC[C@H](N)C(=O)O
Each compound was assayed on DocSTm toxin. Conditions: DocSTm 5 μM, peptide 50 μM, SYPRO Orange 3×, 20 mM K2HPO4, 50 mM (NH4)2SO4, pH 8.0; average Tm with peptide minus average Tm of free DocSTm; mean ± SD.
Experimental: The thermal shift assay was performed using a Mx3005P qPCR System (Agilent) collecting fluorescence data with a temperature ramp of 25 to 95 °C. Samples were prepared in a buffer containing 20 mM K2HPO4 and 50 mM (NH4)2SO4 at pH 8.0, with a final concentration of recombinant Doc protein at 5 μM and Phd peptides at 50 μM. SYPRO Orange dye (Sigma-Aldrich, 5000X stock in DMSO) was used to monitor protein denaturation in a final concentration of 3×. The final sample volume was 20 μL. Each condition was prepared in triplicate in each independent experiment. The melting curves were plotted using GraphPad Prism 9 (GraphPad Software, USA), and the melting temperatures were obtained by fitting the sigmoidal section of the curves to a Boltzmann sigmoid function. For the calculation of thermal shifts ΔTm, the average melting temperature of free DocSTm toxin as determined in the respective peptide measurement cycles was subtracted from the average melting temperature of DocSTm in the presence of the peptide (Table S3).

| SMILES | ΔTm (thermal shift) of DocSTm in the presence of peptide |
| --- | --- |
| CCCC[C@H](NC(=O)[C@H](Cc1c[nH]c2ccccc12)NC(C)=O)C(=O)N[C@@H](CCCNC(=N)N)C(=O)N[C@@H](CCCNC(=N)N)C(=O)N[C@@H](CCC(=O)O)C(=O)N[C@@H](Cc1ccccc1)C(=O)N[C@@H](CCCNC(=N)N)C(=O)N[C@@H](CCCNC(=N)N)C(=O)N[C@H](C(=O)N[C@@H](CCCC)C(=O)N[C@@H](CCCNC(=N)N)C(=O)N[C@H](C(=O)N[C@@H](Cc1c[nH]cn1)C(=O)NCC(=O)N[C@@H](CC(N)=O)C(=O)N[C@@H](CCC(=O)O)C(=O)N[C@@H](CC(C)C)C(=O)N[C@@H](CCCNC(=N)N)C(=O)N[C@@H](CCC(=O)O)C(=O)N[C@@H](CC(C)C)C(=O)N[C@@H](C)C(=O)N[C@@H](CC(=O)O)C(=O)N[C@@H](CCCCN)C(=O)O)C(C)C)[C@@H](C)CC [Peptide 14] (Ac-W[Nle]RREFRRI[Nle]RVHGNELRELADK-OH) | 11–13 °C |
| CCCC[C@H](NC(=O)[C@H](Cc1c[nH]c2ccccc12)NC(C)=O)C(=O)N[C@@H](CC(N)=O)C(=O)N[C@@H](CC(N)=O)C(=O)N[C@@H](CCC(=O)O)C(=O)N[C@@H](Cc1ccccc1)C(=O)N[C@@H](C)C(=O)N[C@@]1(C)CCCC=CCCC[C@@](C)(C(=O)N[C@@H](Cc2c[nH]cn2)C(=O)NCC(=O)N[C@@H](CCCNC(=N)N)C(=O)N[C@@H](CCC(N)=O)C(=O)N[C@@H](CC(C)C)C(=O)N[C@@H](CCCNC(=N)N)C(=O)N[C@@H](CCCNC(=N)N)C(=O)N[C@@H](CC(C)C)C(=O)N[C@@H](C)C(=O)N[C@@H](CCCNC(=N)N)C(=O)N[C@@H](CCCCN)C(=O)O)NC(=O)[C@H](C)NC(=O)[C@H](CCCC)NC(=O)[C@H]([C@@H](C)CC)NC1=O [Peptide 37] (Ac-W[Nle]NNEFA[S5]I[Nle]A[S5]HGRQLRRLARK-OH; staple 8-12) | reduced stabilization |

Same assay, conditions: DocSTm 5 μM, peptide 50 μM, pH 8.0; average ± SD, replicates 3-48 (Table S3)

| SMILES | Average Tm of DocSTm in the presence of peptide |
| --- | --- |
| CCCC[C@H](NC(=O)[C@H](Cc1c[nH]c2ccccc12)NC(C)=O)C(=O)N[C@@H](CC(=O)O)C(=O)N[C@@H](CC(=O)O)C(=O)N[C@@H](CCC(=O)O)C(=O)N[C@@H](Cc1ccccc1)C(=O)N[C@@H](C)C(=O)N[C@@H](C)C(=O)N[C@H](C(=O)N[C@@H](CCCC)C(=O)N[C@@H](C)C(=O)N[C@H](C(=O)N[C@@H](Cc1c[nH]cn1)C(=O)NCC(=O)N[C@@H](CC(N)=O)C(=O)N[C@@H](CCC(=O)O)C(=O)N[C@@H](CC(C)C)C(=O)N[C@@H](CCCNC(=N)N)C(=O)N[C@@H](CCC(=O)O)C(=O)N[C@@H](CC(C)C)C(=O)N[C@@H](CCCNC(=N)N)C(=O)N[C@@H](CC(=O)O)C(=O)N[C@@H](CCCCN)C(=O)O)C(C)C)[C@@H](C)CC [Peptide 12] (Ac-W[Nle]DDEFAAI[Nle]AVHGNELRELRDK-OH) | 68.3 ± 0.9 °C |
| CCCC[C@H](NC(=O)[C@H](Cc1c[nH]c2ccccc12)NC(C)=O)C(=O)N[C@@H](CC(=O)O)C(=O)N[C@@H](CC(=O)O)C(=O)N[C@@H](CCC(=O)O)C(=O)N[C@@H](Cc1ccccc1)C(=O)N[C@@H](CCCNC(=N)N)C(=O)N[C@@H](C)C(=O)N[C@H](C(=O)N[C@@H](CCCC)C(=O)N[C@@H](C)C(=O)N[C@H](C(=O)N[C@@H](Cc1c[nH]cn1)C(=O)NCC(=O)N[C@@H](CC(N)=O)C(=O)N[C@@H](CCC(=O)O)C(=O)N[C@@H](CC(C)C)C(=O)N[C@@H](CCCNC(=N)N)C(=O)N[C@@H](CCC(=O)O)C(=O)N[C@@H](CC(C)C)C(=O)N[C@@H](C)C(=O)N[C@@H](CC(=O)O)C(=O)N[C@@H](CCCCN)C(=O)O)C(C)C)[C@@H](C)CC [Peptide 5] (Ac-W[Nle]DDEFRAI[Nle]AVHGNELRELADK-OH) | 69.7 ± 0.7 °C |
| CCCC[C@H](NC(=O)[C@H](Cc1c[nH]c2ccccc12)NC(C)=O)C(=O)N[C@@H](CCCNC(=N)N)C(=O)N[C@@H](CCCNC(=N)N)C(=O)N[C@@H](CCC(=O)O)C(=O)N[C@@H](Cc1ccccc1)C(=O)N[C@@H](CCCNC(=N)N)C(=O)N[C@@H](CCCNC(=N)N)C(=O)N[C@H](C(=O)N[C@@H](CCCC)C(=O)N[C@@H](CCCNC(=N)N)C(=O)N[C@H](C(=O)N[C@@H](Cc1c[nH]cn1)C(=O)NCC(=O)N[C@@H](CC(N)=O)C(=O)N[C@@H](CCC(=O)O)C(=O)N[C@@H](CC(C)C)C(=O)N[C@@H](CCCNC(=N)N)C(=O)N[C@@H](CCC(=O)O)C(=O)N[C@@H](CC(C)C)C(=O)N[C@@H](C)C(=O)N[C@@H](CC(=O)O)C(=O)N[C@@H](CCCCN)C(=O)O)C(C)C)[C@@H](C)CC [Peptide 14] (Ac-W[Nle]RREFRRI[Nle]RVHGNELRELADK-OH) | 56.0 ± 0.1 °C |
| CCCC[C@H](NC(=O)[C@H](Cc1c[nH]c2ccccc12)NC(C)=O)C(=O)N[C@@H](CC(=O)O)C(=O)N[C@@H](CC(=O)O)C(=O)N[C@@H](CCC(=O)O)C(=O)N[C@@H](Cc1ccccc1)C(=O)N[C@@H](C)C(=O)N[C@@H](CCCNC(=N)N)C(=O)N[C@H](C(=O)N[C@@H](CCCC)C(=O)N[C@@H](C)C(=O)N[C@H](C(=O)N[C@@H](Cc1c[nH]cn1)C(=O)NCC(=O)N[C@@H](CC(N)=O)C(=O)N[C@@H](CCC(=O)O)C(=O)N[C@@H](CC(C)C)C(=O)N[C@@H](CCCNC(=N)N)C(=O)N[C@@H](CCC(=O)O)C(=O)N[C@@H](CC(C)C)C(=O)N[C@@H](C)C(=O)N[C@@H](CC(=O)O)C(=O)N[C@@H](CCCCN)C(=O)O)C(C)C)[C@@H](C)CC [Peptide 6] (Ac-W[Nle]DDEFARI[Nle]AVHGNELRELADK-OH) | 67.3 ± 1.4 °C |
| CCCC[C@H](NC(=O)[C@H](Cc1c[nH]c2ccccc12)NC(C)=O)C(=O)N[C@@H](CC(=O)O)C(=O)N[C@@H](CC(=O)O)C(=O)N[C@@H](CCC(=O)O)C(=O)N[C@@H](Cc1ccccc1)C(=O)N[C@@H](C)C(=O)N[C@@H](C)C(=O)N[C@H](C(=O)N[C@@H](CCCC)C(=O)N[C@@H](CCCNC(=N)N)C(=O)N[C@H](C(=O)N[C@@H](Cc1c[nH]cn1)C(=O)NCC(=O)N[C@@H](CC(N)=O)C(=O)N[C@@H](CCC(=O)O)C(=O)N[C@@H](CC(C)C)C(=O)N[C@@H](CCCNC(=N)N)C(=O)N[C@@H](CCC(=O)O)C(=O)N[C@@H](CC(C)C)C(=O)N[C@@H](C)C(=O)N[C@@H](CC(=O)O)C(=O)N[C@@H](CCCCN)C(=O)O)C(C)C)[C@@H](C)CC [Peptide 7] (Ac-W[Nle]DDEFAAI[Nle]RVHGNELRELADK-OH) | 70.2 ± 0.3 °C |
| CCCC[C@H](NC(=O)[C@H](Cc1c[nH]c2ccccc12)NC(C)=O)C(=O)N[C@@H](CC(=O)O)C(=O)N[C@@H](CC(=O)O)C(=O)N[C@@H](CCC(=O)O)C(=O)N[C@@H](Cc1ccccc1)C(=O)N[C@@H](C)C(=O)N[C@@H](C)C(=O)N[C@H](C(=O)N[C@@H](CCCC)C(=O)N[C@@H](C)C(=O)N[C@H](C(=O)N[C@@H](Cc1c[nH]cn1)C(=O)NCC(=O)N[C@@H](CC(N)=O)C(=O)N[C@@H](CCCNC(=N)N)C(=O)N[C@@H](CC(C)C)C(=O)N[C@@H](CCCNC(=N)N)C(=O)N[C@@H](CCC(=O)O)C(=O)N[C@@H](CC(C)C)C(=O)N[C@@H](C)C(=O)N[C@@H](CC(=O)O)C(=O)N[C@@H](CCCCN)C(=O)O)C(C)C)[C@@H](C)CC [Peptide 10] (Ac-W[Nle]DDEFAAI[Nle]AVHGNRLRELADK-OH) | 59.5 ± 0.3 °C |
| CCCC[C@H](NC(=O)[C@H](Cc1c[nH]c2ccccc12)NC(C)=O)C(=O)N[C@@H](CC(N)=O)C(=O)N[C@@H](CC(N)=O)C(=O)N[C@@H](CCC(=O)O)C(=O)N[C@@H](Cc1ccccc1)C(=O)N[C@@H](C)C(=O)N[C@@]1(C)CCCC=CCCC[C@@](C)(C(=O)N[C@@H](Cc2c[nH]cn2)C(=O)NCC(=O)N[C@@H](CCCNC(=N)N)C(=O)N[C@@H](CCC(N)=O)C(=O)N[C@@H](CC(C)C)C(=O)N[C@@H](CCCNC(=N)N)C(=O)N[C@@H](CCCNC(=N)N)C(=O)N[C@@H](CC(C)C)C(=O)N[C@@H](C)C(=O)N[C@@H](CCCNC(=N)N)C(=O)N[C@@H](CCCCN)C(=O)O)NC(=O)[C@H](C)NC(=O)[C@H](CCCC)NC(=O)[C@H]([C@@H](C)CC)NC1=O [Peptide 37] (Ac-W[Nle]NNEFA[S5]I[Nle]A[S5]HGRQLRRLARK-OH; staple 8-12) | 55.3 ± 1.5 °C |
| CCCC[C@H](NC(=O)[C@H](Cc1c[nH]c2ccccc12)NC(C)=O)C(=O)N[C@@H](CCCNC(=N)N)C(=O)N[C@@H](CC(N)=O)C(=O)N[C@@H](CCC(N)=O)C(=O)N[C@@H](Cc1ccccc1)C(=O)N[C@@H](C)C(=O)N[C@@H](C)C(=O)N[C@H](C(=O)N[C@@H](CCCC)C(=O)N[C@@H](CCCNC(=N)N)C(=O)N[C@H](C(=O)N[C@@H](Cc1c[nH]cn1)C(=O)NCC(=O)N[C@@H](CC(N)=O)C(=O)N[C@@H](CCC(N)=O)C(=O)N[C@@H](CC(C)C)C(=O)N[C@@H](CCCNC(=N)N)C(=O)N[C@@H](CCC(=O)O)C(=O)N[C@@H](CC(C)C)C(=O)N[C@@H](C)C(=O)N[C@@H](CC(N)=O)C(=O)N[C@@H](CCCCN)C(=O)O)C(C)C)[C@@H](C)CC [Peptide 22] (Ac-W[Nle]RNQFAAI[Nle]RVHGNQLRELANK-OH) | 54.7 ± 3.1 °C |
| CCCC[C@H](NC(=O)[C@H](Cc1c[nH]c2ccccc12)NC(C)=O)C(=O)N[C@@H](CC(N)=O)C(=O)N[C@@]1(C)CCCC=CCCC[C@@](C)(C(=O)N[C@H](C(=O)N[C@@H](CCCC)C(=O)N[C@@H](C)C(=O)N[C@H](C(=O)N[C@@H](Cc2c[nH]cn2)C(=O)NCC(=O)N[C@@H](CCCNC(=N)N)C(=O)N[C@@H](CCC(N)=O)C(=O)N[C@@H](CC(C)C)C(=O)N[C@@H](CCCNC(=N)N)C(=O)N[C@@H](CCCNC(=N)N)C(=O)N[C@@H](CC(C)C)C(=O)N[C@@H](C)C(=O)N[C@@H](CCCNC(=N)N)C(=O)N[C@@H](CCCCN)C(=O)O)C(C)C)[C@@H](C)CC)NC(=O)[C@H](C)NC(=O)[C@H](Cc2ccccc2)NC(=O)[C@H](CCC(=O)O)NC1=O [Peptide 35] (Ac-W[Nle]N[S5]EFA[S5]I[Nle]AVHGRQLRRLARK-OH; staple 4-8) | 59.9 ± 0.4 °C |
| CCCC[C@H](NC(=O)[C@H](Cc1c[nH]c2ccccc12)NC(C)=O)C(=O)N[C@@H](CCCNC(=N)N)C(=O)N[C@@H](CC(=O)O)C(=O)N[C@@H](CCC(=O)O)C(=O)N[C@@H](Cc1ccccc1)C(=O)N[C@@H](C)C(=O)N[C@@H](C)C(=O)N[C@H](C(=O)N[C@@H](CCCC)C(=O)N[C@@H](C)C(=O)N[C@H](C(=O)N[C@@H](Cc1c[nH]cn1)C(=O)NCC(=O)N[C@@H](CC(N)=O)C(=O)N[C@@H](CCC(=O)O)C(=O)N[C@@H](CC(C)C)C(=O)N[C@@H](CCCNC(=N)N)C(=O)N[C@@H](CCC(=O)O)C(=O)N[C@@H](CC(C)C)C(=O)N[C@@H](C)C(=O)N[C@@H](CC(=O)O)C(=O)N[C@@H](CCCCN)C(=O)O)C(C)C)[C@@H](C)CC [Peptide 2] (Ac-W[Nle]RDEFAAI[Nle]AVHGNELRELADK-OH) | 66.4 ± 0.2 °C |

Source: article PMC10728895, “Stapled Phd Peptides Inhibit Doc Toxin Induced Growth Arrest in Salmonella” (ACS Chemical Biology, 2023)
